In brackets after ≈: the same amount, converted by molar mass.
How the values were obtained:
Assay in all cases: in vitro antibacterial evaluation, MIC by broth dilution
Format in all cases: cell-based
Escherichia coli = settings: broth dilution, 18 hours at 35° C.; for MIC Escherichia coli (ATCC 25922): strain ATCC 25922; for MIC Escherichia coli (GC 4559): strain GC 4559; for MIC Escherichia coli (GC 4560): strain GC 4560
Summary of the method: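 Broth dilution in Muller-Hinton II medium per NCCLS standard M7-A2, with an inoculum of 5×10^5 CFU/mL and antibiotic tested over 64-0.06 μg/mL. MIC was taken as the lowest concentration inhibiting visible growth.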

Streptococcus sp. = settings: broth dilution, 18 hours at 35° C.; for MIC Streptococcus pneumoniae (ATCC 6301): strain ATCC 6301; for MIC Streptococcus pneumoniae (GC 1894): strain GC 1894; for MIC Streptococcus pyogenes (GC 4563): strain GC 4563; for MIC Streptococcus agalactiae (GC 4564): strain GC 4564; for MIC Streptococcus pneumoniae (GC 4565): strain GC 4565
Description: (§1) Methods for in vitro Antibacterial Evaluation (Table 1)
(§2) The minimum inhibitory concentration (MIC), the lowest concentration of the antibiotic which inhibits growth of the test organism, is determined by the broth dilution method using Muller-Hinton II […] (Baltimore Biological Laboratories) following the recommendations of the National Committee for Clinical Laboratory Standards [Methods for dilution antimicrobial susceptibility tests for bacteria that grow aerobically, approved standard M7-A2, National Committee for Clinical Laboratory Standards, Villanova, Pa.].
(§3) An inoculum level of 5×10^5 CFU/mL, and a range of antibiotic concentrations (64-0.06 μg/mL) is used. […] The test organisms include a spectrum of Gram-positive bacteria comprised of Staphylococcus sp., Streptococcus sp. and Enterococcus sp. These organisms include recent clinical isolates that are resistant to methicillin, penicillin and/or vancomycin.

Enterococcus sp. = settings: broth dilution, 18 hours at 35° C.; for MIC Enterococcus faecalis (ATCC 29212): strain ATCC 29212; for MIC Enterococcus faecalis (GC 2242): strain GC 2242; for MIC Enterococcus faecium (GC 2243): strain GC 2243; for MIC Enterococcus faecalis (GC 2691): strain GC 2691; for MIC Enterococcus faecalis (GC 3059): strain GC 3059; for MIC Enterococcus faecalis (GC 4552): strain GC 4552; for MIC Enterococcus faecalis (GC 4553): strain GC 4553; for MIC Enterococcus faecalis (GC 4554): strain GC 4554; for MIC Enterococcus faecium (GC 4556): strain GC 4556; for MIC Enterococcus faecium (GC 4557): strain GC 4557; for MIC Enterococcus avium (GC 4558): strain GC 4558; for MIC Enterococcus faecalis (GC 6189): strain GC 6189
Description: as §1, §2, §3

Staphylococcus sp. = settings: broth dilution, 18 hours at 35° C.; for MIC Staphylococcus aureus (ATCC 29213): strain ATCC 29213; for MIC Staphylococcus aureus (GC 1131): strain GC 1131; for MIC Staphylococcus aureus (GC 3051): strain GC 3051; for MIC Staphylococcus aureus (GC 3053): strain GC 3053; for MIC Staphylococcus aureus (GC 4541): strain GC 4541; for MIC Staphylococcus aureus (GC 4542): strain GC 4542; for MIC Staphylococcus aureus-SMITH (GC 4543): strain GC 4543; for MIC Staphylococcus aureus (GC 4544): strain GC 4544; for MIC Staphylococcus aureus (GC 4545): strain GC 4545; for MIC Staphylococcus haemolyticus (GC 4546): strain GC 4546; for MIC Coagulase Negative Staphylococcus (GC 4547): strain GC 4547; for MIC Coagulase Negative Staphylococcus (GC 4548): strain GC 4548; for MIC Coagulase Negative Staphylococcus (GC 4549): strain GC 4549; for MIC Coagulase Negative Staphylococcus (GC 4551): strain GC 4551; for MIC Coagulase Negative Staphylococcus (GC 6257): strain GC 6257
Description: as §1, §2, §3

| MIC Escherichia coli (ATCC 25922) (Escherichia coli) | MIC Escherichia coli (GC 4559) (Escherichia coli) | MIC Escherichia coli (GC 4560) (Escherichia coli) | MIC Streptococcus pneumoniae (ATCC 6301) (Streptococcus sp.) | MIC Streptococcus pneumoniae (GC 1894) (Streptococcus sp.) | MIC Streptococcus pyogenes (GC 4563) (Streptococcus sp.) | MIC Streptococcus agalactiae (GC 4564) (Streptococcus sp.) | MIC Streptococcus pneumoniae (GC 4565) (Streptococcus sp.) | MIC Enterococcus faecalis (ATCC 29212) (Enterococcus sp.) | MIC Enterococcus faecalis (GC 2242) (Enterococcus sp.) | MIC Enterococcus faecium (GC 2243) (Enterococcus sp.) | MIC Enterococcus faecalis (GC 2691) (Enterococcus sp.) | MIC Enterococcus faecalis (GC 3059) (Enterococcus sp.) | MIC Enterococcus faecalis (GC 4552) (Enterococcus sp.) | MIC Enterococcus faecalis (GC 4553) (Enterococcus sp.) | MIC Enterococcus faecalis (GC 4554) (Enterococcus sp.) | MIC Enterococcus faecium (GC 4556) (Enterococcus sp.) | MIC Enterococcus faecium (GC 4557) (Enterococcus sp.) | MIC Enterococcus avium (GC 4558) (Enterococcus sp.) | MIC Enterococcus faecalis (GC 6189) (Enterococcus sp.) | SMILES | also measured |
| --- | --- | --- | --- | --- | --- | --- | --- | --- | --- | --- | --- | --- | --- | --- | --- | --- | --- | --- | --- | --- | --- |
| >128 µg/mL | >128 µg/mL | >128 µg/mL | 8 µg/mL (≈ 7.91 µM) | 8 µg/mL (≈ 7.91 µM) | 32 µg/mL (≈ 31.6 µM) | 32 µg/mL (≈ 31.6 µM) | 8 µg/mL (≈ 7.91 µM) | >128 µg/mL | >128 µg/mL | >128 µg/mL | >128 µg/mL | >128 µg/mL | >128 µg/mL | >128 µg/mL | >128 µg/mL | >128 µg/mL | 64 µg/mL (≈ 63.2 µM) | >128 µg/mL | >128 µg/mL | CC(c1ccccc1)C1NC(=O)CNC(=O)C(CO)NC(=O)C(C(O)C2CNC(=N)N2C2OC(CO)C(O)C(O)C2O)NC(=O)C(C(O)C2CNC(=N)N2)NC(=O)C(Cc2ccc3oc(=O)[nH]c3c2)NC1=O (stereo not drawn) [Example 22, Cyclo[3-(2,3-dihydro-2-oxo-1,3-benzoxazol-5-yl)alanyl-3-(2-iminoimidazolidin-4-yl)seryl-3-(3-hexopyranosyl-2-iminoimidazolidin-4-yl)serylserylglycyl-β-methylphenylalanyl]] | MIC Staphylococcus aureus (ATCC 29213) (Staphylococcus sp.): >128 µg/mL; MIC Staphylococcus aureus (GC 1131) (Staphylococcus sp.): >128 µg/mL; MIC Staphylococcus aureus (GC 3051) (Staphylococcus sp.): >128 µg/mL; MIC Staphylococcus aureus (GC 3053) (Staphylococcus sp.): >128 µg/mL; MIC Staphylococcus aureus (GC 4541) (Staphylococcus sp.): >128 µg/mL; MIC Staphylococcus aureus (GC 4542) (Staphylococcus sp.): >128 µg/mL; MIC Staphylococcus aureus-SMITH (GC 4543) (Staphylococcus sp.): >128 µg/mL; MIC Staphylococcus aureus (GC 4544) (Staphylococcus sp.): >128 µg/mL; MIC Staphylococcus aureus (GC 4545) (Staphylococcus sp.): >128 µg/mL; MIC Staphylococcus haemolyticus (GC 4546) (Staphylococcus sp.): >128 µg/mL; MIC Coagulase Negative Staphylococcus (GC 4547) (Staphylococcus sp.): >128 µg/mL; MIC Coagulase Negative Staphylococcus (GC 4548) (Staphylococcus sp.): 128 µg/mL (≈ 126 µM); MIC Coagulase Negative Staphylococcus (GC 4549) (Staphylococcus sp.): 64 µg/mL (≈ 63.2 µM); MIC Coagulase Negative Staphylococcus (GC 4551) (Staphylococcus sp.): >128 µg/mL; MIC Coagulase Negative Staphylococcus (GC 6257) (Staphylococcus sp.): 128 µg/mL (≈ 126 µM) |
| >64 µg/mL | >64 µg/mL | 32 µg/mL (≈ 25.5 µM) | >64 µg/mL | 64 µg/mL (≈ 50.9 µM) | 64 µg/mL (≈ 50.9 µM) | >64 µg/mL | >64 µg/mL | 64 µg/mL (≈ 50.9 µM) | 64 µg/mL (≈ 50.9 µM) | 64 µg/mL (≈ 50.9 µM) | >64 µg/mL | >64 µg/mL | >64 µg/mL | 32 µg/mL (≈ 25.5 µM) | >64 µg/mL | 64 µg/mL (≈ 50.9 µM) | 32 µg/mL (≈ 25.5 µM) | 64 µg/mL (≈ 50.9 µM) | >64 µg/mL | CC(c1ccccc1)C1NC(=O)CNC(=O)C(CO)NC(=O)C(C(O)C2CNC(=N)N2C2OC(CO)C(O)C(O)C2O)NC(=O)C(C(O)C2CNC(=N)N2)NC(=O)C(Cc2ccc(O)c(NC(=S)Nc3cc(C(F)(F)F)cc(C(F)(F)F)c3)c2)NC1=O (stereo not drawn) [Example 24, Cyclo[glycyl-β-methylphenylalanyl-3-[[[3,5-bis(trifluoromethyl)phenyl]carbamothioyl]amino]-tyrosyl-3-(2-iminoimidazolidin-4-yl)seryl-3-(3-hexopyranosyl-2-iminoimidazolidin-4-y)-serylseryl]] | MIC Staphylococcus aureus (ATCC 29213) (Staphylococcus sp.): >64 µg/mL; MIC Staphylococcus aureus (GC 1131) (Staphylococcus sp.): >64 µg/mL; MIC Staphylococcus aureus (GC 3051) (Staphylococcus sp.): >64 µg/mL; MIC Staphylococcus aureus (GC 3053) (Staphylococcus sp.): >64 µg/mL; MIC Staphylococcus aureus (GC 4541) (Staphylococcus sp.): >64 µg/mL; MIC Staphylococcus aureus (GC 4542) (Staphylococcus sp.): >64 µg/mL; MIC Staphylococcus aureus-SMITH (GC 4543) (Staphylococcus sp.): >64 µg/mL; MIC Staphylococcus aureus (GC 4544) (Staphylococcus sp.): >64 µg/mL; MIC Staphylococcus aureus (GC 4545) (Staphylococcus sp.): >64 µg/mL; MIC Staphylococcus haemolyticus (GC 4546) (Staphylococcus sp.): 64 µg/mL (≈ 50.9 µM); MIC Coagulase Negative Staphylococcus (GC 4547) (Staphylococcus sp.): 64 µg/mL (≈ 50.9 µM); MIC Coagulase Negative Staphylococcus (GC 4548) (Staphylococcus sp.): 64 µg/mL (≈ 50.9 µM); MIC Coagulase Negative Staphylococcus (GC 4549) (Staphylococcus sp.): >64 µg/mL; MIC Coagulase Negative Staphylococcus (GC 4551) (Staphylococcus sp.): >64 µg/mL; MIC Coagulase Negative Staphylococcus (GC 6257) (Staphylococcus sp.): 32 µg/mL (≈ 25.5 µM) |
| >128 µg/mL | >128 µg/mL | >128 µg/mL | >128 µg/mL | 128 µg/mL (≈ 115 µM) | >128 µg/mL | >128 µg/mL | >128 µg/mL | >128 µg/mL | >128 µg/mL | >128 µg/mL | >128 µg/mL | >128 µg/mL | >128 µg/mL | >128 µg/mL | >128 µg/mL | >128 µg/mL | 128 µg/mL (≈ 115 µM) | 128 µg/mL (≈ 115 µM) | >128 µg/mL | CC(c1ccccc1)C1NC(=O)CNC(=O)C(CO)NC(=O)C(C(O)C2CNC(=N)N2C2OC(CO)C(O)C(O)C2O)NC(=O)C(C(O)C2CNC(=N)N2)NC(=O)C(Cc2ccc3oc(-c4ccc(C(=O)O)cc4)nc3c2)NC1=O (stereo not drawn) [Example 25, Cyclo[3-[2-(4-carboxyphenyl)-1,3-benzoxazol-5-yl]alanyl-3-(2-iminoimidazolidin-4-yl)seryl-3-(3-hexopyranosyl-2-iminoimidazolidin-4-yl)serylserylglycyl-β-methylphenylalanyl]] | MIC Staphylococcus aureus (ATCC 29213) (Staphylococcus sp.): >128 µg/mL; MIC Staphylococcus aureus (GC 1131) (Staphylococcus sp.): >128 µg/mL; MIC Staphylococcus aureus (GC 3051) (Staphylococcus sp.): >128 µg/mL; MIC Staphylococcus aureus (GC 3053) (Staphylococcus sp.): >128 µg/mL; MIC Staphylococcus aureus (GC 4541) (Staphylococcus sp.): >128 µg/mL; MIC Staphylococcus aureus (GC 4542) (Staphylococcus sp.): >128 µg/mL; MIC Staphylococcus aureus-SMITH (GC 4543) (Staphylococcus sp.): >128 µg/mL; MIC Staphylococcus aureus (GC 4544) (Staphylococcus sp.): >128 µg/mL; MIC Staphylococcus aureus (GC 4545) (Staphylococcus sp.): >128 µg/mL; MIC Staphylococcus haemolyticus (GC 4546) (Staphylococcus sp.): >128 µg/mL; MIC Coagulase Negative Staphylococcus (GC 4547) (Staphylococcus sp.): >128 µg/mL; MIC Coagulase Negative Staphylococcus (GC 4548) (Staphylococcus sp.): >128 µg/mL; MIC Coagulase Negative Staphylococcus (GC 4549) (Staphylococcus sp.): >128 µg/mL; MIC Coagulase Negative Staphylococcus (GC 4551) (Staphylococcus sp.): >128 µg/mL; MIC Coagulase Negative Staphylococcus (GC 6257) (Staphylococcus sp.): >128 µg/mL |
